Experimental findings from patent US20140378454A1, “NOVEL METHODS” (XSPRAY MICROPARTICLES AB, priority 2012, published 2014) are described below.

Counter-ions that a name gives are not always drawn.

Data set [1] can be described thus: Dissolution measurement assay (apparent solubility) in FaSSIF, pH 6.5. Format: physicochemical. On the set-up: AUC/90 min / AUC/80 min: concentration or dose not given beside the values. The conditions noted are these: for AUC/80 min: during 80 min dissolution.
A short description of data set [2]: Dissolution rate measurement in sink conditions, flow through cell system, FaSSIF, 37° C. Format: physicochemical. The conditions noted are these: sink condition in FaSSIF; for Initial Dissolution Rate: initial slope of accumulated % solubilized vs time, 0 to 10 minutes. As for the experimental part:
The temperature of the apparatus was set to 37° C. The amount of powder added into the cell depends on drug load of the powder: The exact amount of powder was calculated from results obtained from drug load analysis of the powders.
Typically, 3.5 to 7 mg PKI was added into the flow through cell and a flow rate between 8 and 16 ml medium/min (preferably about 8 ml medium/min) was pumped through the powder. One ml samples of the medium passing through the cell were collected at predetermined times. […] Samples were taken after 0, 0.5, 1, 1.5, 2, 3, 4, 5, 6, 7, 8, 9, 10, 15, 20, 25, 30, 35 and 40 min from the moment the medium comes out from the flow through cell. The accumulated % solubilized of the amount of active substance added into the flow through cell was calculated and plotted against time (min). The initial slope (“initial dissolution rate”) of the graph was estimated, as measured during 0 to 10 minutes, and taken as the dissolution rate of the material in sink condition at 37° C. in the given dissolution medium.

[3] abbreviates: concentration of nilotinib HCl, FaSSIF solution (pH 6.5), 5 minutes dissolution, HCl.
Where [4] appears, read: concentration of nilotinib HCl, FaSSIF solution (pH 6.5), 30 minutes dissolution, HCl.
Where [5] appears, read: concentration of nilotinib HCl, FaSSIF solution (pH 6.5), 90 minutes dissolution, HCl.
The mark [6] stands for this setting: nilotinib HCl, FaSSIF solution (pH 6.5), 30 minutes dissolution, HCl.
[7] abbreviates: nilotinib HCl, FaSSIF solution (pH 6.5), Area Under the Curve during 90 minutes dissolution, HCl.

`Cc1cn(-c2cc(NC(=O)c3ccc(C)c(Nc4nccc(-c5cccnc5)n4)c3)cc(C(F)(F)F)c2)cn1` [Exp 1, Nilotinib HCl]: the “Conc (mg/L) 5 min” value in data set [1] (setting [3]) was 0.1 mg/L. The “Conc (mg/L) 30 min” value in data set [1] (setting [4]) was found to be 0.2 mg/L. Moreover, the “Conc (mg/L) 90 min” value in data set [1] (setting [5]) turned out to be 0.1 mg/L. In data set [1] (setting [6]), the “% solubilized 30 min.” value is recorded as 0.20%. Besides, the “AUC/90 min Mg/min/L” value in data set [1] (setting [7]) turned out to be 13.0 Mg/min/L.
In the case of `C#Cc1cccc(Nc2ncnc3cc(OCCOC)c(OCCOC)cc23)c1` [Exp 58, erlotinib HCl], the “Conc (mg/L) 5 min” value in data set [1] (5 min, pH 6.5) came to 28.9 mg/L. The “Conc (mg/L) 30 min” value in data set [1] (30 min, pH 6.5) worked out at 6.25 mg/L. In data set [1] (90 min, pH 6.5), the “Conc (mg/L) 90 min” value stood at 4.6 mg/L. In data set [1] (erlotinib HCl, FaSSIF pH 6.5, 30 min dissolution), the “% solubilized 30 min.” value came to 0.6%. In data set [1] (erlotinib HCl, FaSSIF pH 6.5, during 90 min dissolution), the “AUC/90 min Mg/min/L” value is 837 Mg/min/L.
On to `CNC(=O)c1cc(Oc2ccc(NC(=O)Nc3ccc(Cl)c(C(F)(F)F)c3)cc2)ccn1` [Exp 142, sorafenib tosylate], for which, in data set [1] (3 min, pH 6.5), the “Conc (mg/L) 3 min” value turned out to be 59.1 mg/L. Moreover, in data set [1] (40 min, pH 6.5), the “% solubilized 40 min.” value came to 34.4% and the “Conc (mg/L) 40 min” value is recorded as 343.5 mg/L. The “Conc (mg/L) 80 min” value in data set [1] (80 min, pH 6.5) is recorded as 311.5 mg/L.
`CNC(=O)c1cc(Oc2ccc(NC(=O)Nc3ccc(Cl)c(C(F)(F)F)c3)cc2)ccn1` [Exp 560, sorafenib tosylate]: the “Initial Dissolution Rate” value in data set [2] is 0.47.
Same read-out and setting: the result for `CS(=O)(=O)CCNCc1ccc(-c2ccc3ncnc(Nc4ccc(OCc5cccc(F)c5)c(Cl)c4)c3c2)o1` [Exp 530, lapatinib ditosylate] reads 0.103; that for `Cc1cn(-c2cc(NC(=O)c3ccc(C)c(Nc4nccc(-c5cccnc5)n4)c3)cc(C(F)(F)F)c2)cn1` [Exp 500, nilotinib HCl], 0.27.
For `C[C@@H](Oc1cc(-c2cnn(C3CCNCC3)c2)cnc1N)c1c(Cl)ccc(F)c1Cl` [Exp 570, crizotinib], the “Initial Dissolution Rate” value in data set [2] is recorded as 6.6.
Take `Cc1cn(-c2cc(NC(=O)c3ccc(C)c(Nc4nccc(-c5cccnc5)n4)c3)cc(C(F)(F)F)c2)cn1` [Exp 3, Nilotinib HCl]: the “Conc (mg/L) 5 min” value in data set [1] (setting [3]) turned out to be 0.2 mg/L. Further, in data set [1] (setting [4]), the “Conc (mg/L) 30 min” value was found to be 0.3 mg/L. For the same compound, the “Conc (mg/L) 90 min” value in data set [1] (setting [5]) is 0.2 mg/L. Besides, in data set [1] (setting [6]), the “% solubilized 30 min.” value was 0.03%. Further, the “AUC/90 min Mg/min/L” value in data set [1] (setting [7]) was determined as 21.8 Mg/min/L.
Regarding `Cc1cn(-c2cc(NC(=O)c3ccc(C)c(Nc4nccc(-c5cccnc5)n4)c3)cc(C(F)(F)F)c2)cn1` [Exp 4, Nilotinib Base], the “Conc (mg/L) 5 min” value in data set [1] (concentration of nilotinib HCl, FaSSIF solution (pH 6.5), 5 minutes dissolution) was found to be 0.6 mg/L. The “Conc (mg/L) 30 min” value in data set [1] (concentration of nilotinib HCl, FaSSIF solution (pH 6.5), 30 minutes dissolution) stood at 0.5 mg/L. Moreover, in data set [1] (concentration of nilotinib HCl, FaSSIF solution (pH 6.5), 90 minutes dissolution), the “Conc (mg/L) 90 min” value was found to be 0.2 mg/L. In addition, the “% solubilized 30 min.” value in data set [1] (nilotinib HCl, FaSSIF solution (pH 6.5), 30 minutes dissolution) is given as 0.50%. In addition, the “AUC/90 min Mg/min/L” value in data set [1] (nilotinib HCl, FaSSIF solution (pH 6.5), Area Under the Curve during 90 minutes dissolution) turned out to be 36.5 Mg/min/L.
Turning to `CS(=O)(=O)CCNCc1ccc(-c2ccc3ncnc(Nc4ccc(OCc5cccc(F)c5)c(Cl)c4)c3c2)o1` [Exp 110, lapatinib base], the “Conc (mg/L) 5 min” value in data set [1] (concentration of lapatinib after 5 min dissolution, FaSSIF pH 6.5) stood at 2.9 mg/L. In data set [1] (concentration of lapatinib after 30 min dissolution, FaSSIF pH 6.5), the “Conc (mg/L) 30 min” value came out at 6.0 mg/L. Further, the “Conc (mg/L) 90 min” value in data set [1] (concentration of lapatinib after 90 min dissolution, FaSSIF pH 6.5) worked out at 6.5 mg/L. The “% solubilized 30 min.” value in data set [1] (lapatinib, 30 min dissolution, FaSSIF pH 6.5) amounted to 0.3%. The AUC/90 min in data set [1] (lapatinib, during 90 min dissolution, FaSSIF pH 6.5) came to 494 Mg/min/L.
As to `CCCS(=O)(=O)Nc1ccc(F)c(C(=O)c2c[nH]c3ncc(-c4ccc(Cl)cc4)cc23)c1F` [Exp 164, vemurafenib], the “Conc (mg/L) 3 min” value in data set [1] (3 min, pH 6.5) was 0.3 mg/L. Further, in data set [1] (40 min, pH 6.5), the “% solubilized 40 min.” value amounted to 0.1% and the “Conc (mg/L) 40 min” value was 0.3 mg/L. The “Conc (mg/L) 80 min” value in data set [1] (80 min, pH 6.5) worked out at 0.4 mg/L.
With `Cc1nc(Nc2ncc(C(=O)Nc3c(C)cccc3Cl)s2)cc(N2CCN(CCO)CC2)n1` [Exp 138, dasatinib], the “Conc (mg/L) 3 min” value in data set [1] (3 min, pH 6.5) turned out to be 34.5 mg/L. Moreover, in data set [1] (40 min, pH 6.5), the “Conc (mg/L) 40 min” value was 59.7 mg/L. In data set [1] (80 min, pH 6.5), the “Conc (mg/L) 80 min” value is 63.5 mg/L. Moreover, in data set [1] (dasatinib, 40 min dissolution, FaSSIF pH 6.5), the “% solubilized 40 min.” value came out at 6.0%. The AUC/80 min in data set [1] (dasatinib, FaSSIF pH 6.5) is 2396 Mg/min/L.
Take `Cc1cn(-c2cc(NC(=O)c3ccc(C)c(Nc4nccc(-c5cccnc5)n4)c3)cc(C(F)(F)F)c2)cn1` [Exp 2, Nilotinib HCl]: the “Conc (mg/L) 5 min” value in data set [1] (setting [3]) is 0.2 mg/L. Moreover, the “Conc (mg/L) 30 min” value in data set [1] (setting [4]) amounted to 0.2 mg/L. For the same compound, the “Conc (mg/L) 90 min” value in data set [1] (setting [5]) is 0.2 mg/L. For the same compound, the “% solubilized 30 min.” value in data set [1] (setting [6]) was 0.04%. Besides, the “AUC/90 min Mg/min/L” value in data set [1] (setting [7]) was 23.5 Mg/min/L.
Regarding `Cc1ccc(Nc2nccc(N(C)c3ccc4c(C)n(C)nc4c3)n2)cc1S(N)(=O)=O` [Exp 84, pazopanib], in data set [1] (5 min, pH 6.5), the “Conc (mg/L) 5 min” value was 46.2 mg/L. In addition, in data set [1] (30 min, pH 6.5), the “% solubilized 30 min.” value is 2.4% and the “Conc (mg/L) 30 min” value was determined as 24.4 mg/L. Besides, the “Conc (mg/L) 90 min” value in data set [1] (90 min, pH 6.5) amounted to 15.0 mg/L.
Regarding `COc1cc2ncnc(Nc3ccc(F)c(Cl)c3)c2cc1OCCCN1CCOCC1` [Exp 540, gefitinib], the “Initial Dissolution Rate” value in data set [2] was found to be 2.2.
As to `C#Cc1cccc(Nc2ncnc3cc(OCCOC)c(OCCOC)cc23)c1` [Exp 510, erlotinib HCl], the “Initial Dissolution Rate” value in data set [2] is on record as 0.303.
For `C[C@@H](Oc1cc(-c2cnn(C3CCNCC3)c2)cnc1N)c1c(Cl)ccc(F)c1Cl` [Exp 150, crizotinib], in data set [1] (3 min, pH 6.5), the “Conc (mg/L) 3 min” value is recorded as 89.3 mg/L. In data set [1] (40 min, pH 6.5), the “% solubilized 40 min.” value is 22.7% and the “Conc (mg/L) 40 min” value amounted to 226.5 mg/L. Moreover, the “Conc (mg/L) 80 min” value in data set [1] (80 min, pH 6.5) was determined as 295.6 mg/L.
As for `COc1cc2ncnc(Nc3ccc(F)c(Cl)c3)c2cc1OCCCN1CCOCC1` [Exp 131, gefitinib], the “Conc (mg/L) 3 min” value in data set [1] (concentration of gefitinib after 3 min dissolution, FaSSIF pH 6.5) is 121.8 mg/L. The “Conc (mg/L) 40 min” value in data set [1] (concentration of gefitinib after 40 min dissolution, FaSSIF pH 6.5) amounted to 153.1 mg/L. Further, the “Conc (mg/L) 80 min” value in data set [1] (concentration of gefitinib after 80 min dissolution, FaSSIF pH 6.5) came to 148.1 mg/L. Moreover, in data set [1] (gefitinib, 40 min dissolution, FaSSIF pH 6.5), the “% solubilized 40 min.” value is 15.3%. The AUC/80 min in data set [1] (gefitinib, FaSSIF pH 6.5) came to 5967 Mg/min/L.
Take `CNC(=O)c1ccccc1Sc1ccc2c(/C=C/c3ccccn3)n[nH]c2c1` [Exp 157, axitinib]: in data set [1] (3 min, pH 6.5), the “Conc (mg/L) 3 min” value is 0.6 mg/L. Besides, the “Conc (mg/L) 40 min” value in data set [1] (40 min, pH 6.5) amounted to 0.6 mg/L. For the same compound, the “Conc (mg/L) 80 min” value in data set [1] (80 min, pH 6.5) is 0.6 mg/L. Also, in data set [1] (axitinib, 40 min dissolution, FaSSIF pH 6.5), the “% solubilized 40 min.” value turned out to be 0.1%. In data set [1] (axitinib, FaSSIF pH 6.5), the AUC/80 min came to 47 Mg/min/L.
On to `CNC(=O)c1cc(Oc2ccc(NC(=O)Nc3ccc(Cl)c(C(F)(F)F)c3)cc2)ccn1.Cc1ccc(S(=O)(=O)O)cc1` [Experiment 560], for which the “Accumulated % of solubilized of remaining active substance at a given time (min)” value was found to be 0.2% in data set [2] (0 min); 0.4% in data set [2] (0.5 min); 0.7% in data set [2] (1 min); 1.0% in data set [2] (1.5 min); 1.3% in data set [2] (2 min); 1.8% in data set [2] (3 min). Also, the “Accumulated % of solubilized of remaining active substance at a given time (min)” value in data set [2] (4 min) turned out to be 2.2%; in data set [2] (5 min) it was 2.6%; in data set [2] (6 min), 3.0%; in data set [2] (7 min), 3.4%; in data set [2] (8 min) it was 3.8%; in data set [2] (9 min), 4.2%. Further, the “Accumulated % of solubilized of remaining active substance at a given time (min)” value in data set [2] (10 min) was found to be 4.6%; in data set [2] (20 min) it was 8.8%; in data set [2] (30 min) it was 12.6%; in data set [2] (40 min), 16.4%.
